Results as given in patent US20110319416A1, “Subunit Selective NMDA Receptor Antagonists For The Treatment Of Neurological Conditions” (EMORY UNIVERSITY, priority 2009, published 2011).
pEC50, pIC50: −log10 of the molar value. Where two headings read alike, the source gives them in different places.

Experiments:
Type in all cases: cell-based
NR1/NR2C = NR1/NR2C (Rattus norvegicus, UniProt P35439+Q00961); experiment: Two electrode voltage clamp, Xenopus oocytes expressing recombinant NR1/NR2C
Description: (§1) Quality of synthesized cRNA was assessed by gel electrophoresis, and quantity was estimated by spectroscopy and gel electrophoresis. Stage V and VI oocytes were surgically removed from the ovaries of large, well-fed and healthy Xenopus laevis anesthetized with 3-amino-benzoic acid ethyl ester (3 gm/l) as previously described. Clusters of isolated oocytes were incubated with 292 U/ml Worthington (Freehold, N.J.) type IV collagenase or 1.3 mg/ml collagenase (Life Technologies, Gaithersburg, MD; 17018-029) for 2 hr in Ca^2+-free solution comprised of (in mM) 115 NaCl, 2.5 KCl, and 10 HEPES, pH 7.5, with slow agitation to remove the follicular cell layer. Oocytes were then washed extensively in the same solution supplemented with 1.8 mM CaCl2 and maintained in Barth's solution comprised of (in mM): 88 NaCl, 1 KCl, 2.4 NaHCO3, 10 HEPES, 0.82 MgSO4, 0.33 Ca(NO3)2, and 0.91 CaCl2 and supplemented with 100 μg/m1 gentamycin, 10 μg/ml streptomycin, and 10 μg/ml penicillin. Oocytes were manually defolliculated and injected within 24 hrs of isolation with 3-5 ng of NR1 subunit cRNA and 7-10 ng of NR2 cRNA subunit in a 50 nl volume, or 5-10 ng of AMPA or kainate receptor cRNAs in a 50 nl volume, and incubated in Barth's solution at 18° C. for 1-7 d. Glass injection pipettes had tip sizes ranging from 10-20 microns, and were backfilled with mineral oil.
(§2) Two electrode voltage-clamp recordings were made 2-7 days post-injection as previously described. Oocytes were placed in a dual-track plexi-glass recording chamber with a single perfusion line that splits in a Y-configuration to perfuse two oocytes. Dual recordings were made at room temperature (23° C.) using two Warner OC725B two-electrode voltage clamp amplifiers, arranged as recommended by the manufacturer. Glass microelectrodes (1-10 Megaohms) were filled with 300 mM KCl (voltage electrode) or 3 M KCl (current electrode). The bath clamps communicated across silver chloride wires placed into each side of the recording chamber, both of which were assumed to be at a reference potential of 0 mV. Oocytes were perfused with a solution comprised of (in mM) 90 NaCl, 1 KCl, 10 HEPES, and 0.5 BaCl2; pH was adjusted by addition of 1-3 M NaOH of HC1 to 7.4. Oocytes were recorded under voltage clamp at −40 mV. […] In some experiments, 10 μM EDTA was obtained by adding a 1:1000 dilution of 10 mM EDTA, in order to chelate contaminant divalent ions such as Zn^2+. […] Concentration effect curves consisting of 4 to 8 concentrations were obtained in this manner. The baseline leak current at −40 mV was measured before and after recording, and the full recording linearly corrected for any change in leak current. […] Each experiment consisted of recordings from 3 to 10 oocytes obtained from a single frog. Results from multiple experiments were pooled, and the average percent responses at antagonist concentrations were fitted by the equation,
(§3) Percent Response=(100−minimum)/(1+([conc]/IC50)nH)+minimum

NR1/NR2D [1] = biological target: NR1/NR2D (Rattus norvegicus, UniProt P35439+Q62645); experiment: Two electrode voltage clamp, Xenopus oocytes expressing recombinant NR1/NR2D
Description: as §1, §2, §3

NR1/NR2A = NR1/NR2A (Rattus norvegicus, UniProt P35439+Q00959); experiment: Two electrode voltage clamp, Xenopus oocytes expressing recombinant NR1/NR2A; details: for remaining activity at 100 µM: read-out: 2A percent effect at the maximum tested concentration
Description: as §1, §2, §3

NR1/NR2B = NR1/NR2B (Rattus norvegicus, UniProt P35439+Q00960); experiment: Two electrode voltage clamp, Xenopus oocytes expressing recombinant NR1/NR2B; details: for remaining activity at 100 µM: read-out: 2B percent effect at the maximum tested concentration
Description: as §1, §2, §3

GluR1 = GluR1 (Rattus norvegicus, UniProt P19490); experiment: Two electrode voltage clamp, Xenopus oocytes expressing GluR1; details: read-out: GluR1 percent effect at the maximum tested concentration
Description: as §1, §2, §3

NR1/NR2D [2] = biological target: T1, NR1/NR2D (Rattus norvegicus, UniProt Q62645); experiment: Ca2+ fluorescence screening assay in NR1/NR2D expressing BHK cells (96 well); design: expressed in transfected cells; host or cells: BHK-21 cells; NR1 induced by doxycyclin (Tet-On), NR2D constitutive
NR1/NR2D [3] = biological target: T1, NR1/NR2D; experiment: Two electrode voltage clamp, Xenopus oocytes expressing recombinant NR1/NR2D
Description: as §1, §2, §3

[4] = logistic fit, minimum forced to 0, read-out: 2C IC50
[5] = logistic fit, minimum forced to 0, read-out: 2D IC50
[6] = logistic fit, minimum forced to 0, read-out: 2B IC50

Sequence of GluR1 (P19490 19-907): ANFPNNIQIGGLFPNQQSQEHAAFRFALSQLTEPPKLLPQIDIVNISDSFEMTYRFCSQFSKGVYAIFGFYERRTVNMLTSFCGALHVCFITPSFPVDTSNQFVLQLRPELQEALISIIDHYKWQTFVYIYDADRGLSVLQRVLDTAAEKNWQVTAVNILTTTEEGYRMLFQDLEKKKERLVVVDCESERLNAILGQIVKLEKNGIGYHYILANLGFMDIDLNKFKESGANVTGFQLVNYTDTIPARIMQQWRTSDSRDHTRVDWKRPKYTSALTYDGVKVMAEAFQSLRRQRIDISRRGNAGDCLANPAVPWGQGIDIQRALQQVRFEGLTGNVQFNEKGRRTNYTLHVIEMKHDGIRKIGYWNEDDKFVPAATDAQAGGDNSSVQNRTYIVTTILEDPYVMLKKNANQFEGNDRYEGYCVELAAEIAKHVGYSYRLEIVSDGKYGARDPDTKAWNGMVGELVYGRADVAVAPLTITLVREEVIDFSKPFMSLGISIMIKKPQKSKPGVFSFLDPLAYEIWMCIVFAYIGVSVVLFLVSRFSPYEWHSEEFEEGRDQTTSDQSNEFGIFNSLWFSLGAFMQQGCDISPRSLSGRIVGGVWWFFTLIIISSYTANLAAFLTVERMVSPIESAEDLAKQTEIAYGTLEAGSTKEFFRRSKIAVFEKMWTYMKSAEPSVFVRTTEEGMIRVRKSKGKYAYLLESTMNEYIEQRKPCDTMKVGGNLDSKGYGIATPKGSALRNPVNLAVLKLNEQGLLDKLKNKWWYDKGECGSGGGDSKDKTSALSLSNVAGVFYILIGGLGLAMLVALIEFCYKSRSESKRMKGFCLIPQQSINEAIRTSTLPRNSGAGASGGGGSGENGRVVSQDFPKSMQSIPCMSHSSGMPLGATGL
T1 sequence (Q62645 28-1323, other chains not shown): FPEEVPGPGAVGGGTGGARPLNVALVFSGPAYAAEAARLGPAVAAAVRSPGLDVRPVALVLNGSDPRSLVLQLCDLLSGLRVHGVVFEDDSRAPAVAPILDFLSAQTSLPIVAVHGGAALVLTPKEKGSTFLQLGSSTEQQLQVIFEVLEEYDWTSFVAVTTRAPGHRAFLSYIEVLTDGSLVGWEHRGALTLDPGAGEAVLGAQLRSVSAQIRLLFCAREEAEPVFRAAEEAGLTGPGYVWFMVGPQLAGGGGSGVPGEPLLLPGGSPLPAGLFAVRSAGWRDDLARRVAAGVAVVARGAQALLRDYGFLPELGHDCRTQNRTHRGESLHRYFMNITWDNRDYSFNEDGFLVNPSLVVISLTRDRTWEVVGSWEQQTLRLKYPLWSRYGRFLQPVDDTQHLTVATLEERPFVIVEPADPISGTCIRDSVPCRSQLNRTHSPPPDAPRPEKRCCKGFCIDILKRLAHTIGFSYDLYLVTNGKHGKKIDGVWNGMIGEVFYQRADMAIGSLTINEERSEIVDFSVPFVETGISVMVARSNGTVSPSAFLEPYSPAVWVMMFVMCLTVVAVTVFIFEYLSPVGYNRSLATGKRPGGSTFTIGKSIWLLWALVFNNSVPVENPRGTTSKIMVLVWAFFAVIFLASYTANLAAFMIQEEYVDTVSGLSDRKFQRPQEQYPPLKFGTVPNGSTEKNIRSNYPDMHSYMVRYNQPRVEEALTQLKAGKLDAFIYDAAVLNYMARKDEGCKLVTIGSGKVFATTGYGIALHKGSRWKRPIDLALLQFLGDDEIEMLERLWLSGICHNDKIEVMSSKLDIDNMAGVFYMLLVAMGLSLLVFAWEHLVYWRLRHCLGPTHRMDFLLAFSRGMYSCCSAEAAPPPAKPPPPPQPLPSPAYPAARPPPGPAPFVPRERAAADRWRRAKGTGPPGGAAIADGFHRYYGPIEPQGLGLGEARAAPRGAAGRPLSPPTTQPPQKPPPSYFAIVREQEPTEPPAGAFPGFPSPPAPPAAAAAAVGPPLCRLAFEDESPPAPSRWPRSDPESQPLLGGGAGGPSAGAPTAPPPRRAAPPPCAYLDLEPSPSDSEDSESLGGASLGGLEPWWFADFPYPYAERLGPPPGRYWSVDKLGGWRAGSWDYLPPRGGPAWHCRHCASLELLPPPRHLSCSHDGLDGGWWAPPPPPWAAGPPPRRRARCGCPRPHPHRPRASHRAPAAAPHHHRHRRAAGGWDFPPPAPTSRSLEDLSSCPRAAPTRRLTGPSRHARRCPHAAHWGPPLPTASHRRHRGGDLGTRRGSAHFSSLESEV
Sequence of NR1/NR2D (Rattus norvegicus, UniProt P35439+Q62645) (Q62645 28-1323, other chains not shown): as above
Sequence of NR1/NR2C (Q00961 20-1237, other chains not shown): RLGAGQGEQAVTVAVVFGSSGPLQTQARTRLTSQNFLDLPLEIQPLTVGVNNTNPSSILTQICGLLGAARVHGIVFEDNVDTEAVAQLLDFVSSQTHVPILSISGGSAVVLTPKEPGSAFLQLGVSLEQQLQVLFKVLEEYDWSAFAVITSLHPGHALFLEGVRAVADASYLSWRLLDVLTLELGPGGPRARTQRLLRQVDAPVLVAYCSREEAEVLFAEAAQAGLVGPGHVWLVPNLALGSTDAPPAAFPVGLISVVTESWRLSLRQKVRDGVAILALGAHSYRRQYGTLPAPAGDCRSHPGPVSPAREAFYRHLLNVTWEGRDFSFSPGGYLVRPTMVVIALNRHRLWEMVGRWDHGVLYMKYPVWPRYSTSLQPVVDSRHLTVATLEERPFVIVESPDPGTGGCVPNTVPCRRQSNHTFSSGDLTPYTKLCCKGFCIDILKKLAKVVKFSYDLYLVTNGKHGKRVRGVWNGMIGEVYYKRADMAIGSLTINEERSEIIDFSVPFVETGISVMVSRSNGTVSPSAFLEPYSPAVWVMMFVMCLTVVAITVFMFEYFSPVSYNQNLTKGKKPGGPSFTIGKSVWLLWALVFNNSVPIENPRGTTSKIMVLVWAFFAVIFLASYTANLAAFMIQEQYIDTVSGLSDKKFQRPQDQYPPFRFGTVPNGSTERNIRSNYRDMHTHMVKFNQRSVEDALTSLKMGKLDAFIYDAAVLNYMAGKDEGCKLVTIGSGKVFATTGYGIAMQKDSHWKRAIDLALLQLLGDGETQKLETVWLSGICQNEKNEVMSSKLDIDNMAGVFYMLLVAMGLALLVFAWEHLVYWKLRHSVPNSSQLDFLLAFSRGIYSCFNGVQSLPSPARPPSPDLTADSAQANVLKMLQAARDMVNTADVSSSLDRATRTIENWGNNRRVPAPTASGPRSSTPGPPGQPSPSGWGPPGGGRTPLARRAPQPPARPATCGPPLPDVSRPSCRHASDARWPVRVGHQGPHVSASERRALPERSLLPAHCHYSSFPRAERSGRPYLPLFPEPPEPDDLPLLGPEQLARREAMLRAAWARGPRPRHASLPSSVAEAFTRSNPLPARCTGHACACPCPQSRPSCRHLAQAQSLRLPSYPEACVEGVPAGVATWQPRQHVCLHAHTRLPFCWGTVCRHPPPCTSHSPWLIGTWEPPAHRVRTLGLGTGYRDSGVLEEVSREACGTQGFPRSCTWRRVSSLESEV
Sequence of NR1/NR2B (Q00960 27-1482, other chains not shown): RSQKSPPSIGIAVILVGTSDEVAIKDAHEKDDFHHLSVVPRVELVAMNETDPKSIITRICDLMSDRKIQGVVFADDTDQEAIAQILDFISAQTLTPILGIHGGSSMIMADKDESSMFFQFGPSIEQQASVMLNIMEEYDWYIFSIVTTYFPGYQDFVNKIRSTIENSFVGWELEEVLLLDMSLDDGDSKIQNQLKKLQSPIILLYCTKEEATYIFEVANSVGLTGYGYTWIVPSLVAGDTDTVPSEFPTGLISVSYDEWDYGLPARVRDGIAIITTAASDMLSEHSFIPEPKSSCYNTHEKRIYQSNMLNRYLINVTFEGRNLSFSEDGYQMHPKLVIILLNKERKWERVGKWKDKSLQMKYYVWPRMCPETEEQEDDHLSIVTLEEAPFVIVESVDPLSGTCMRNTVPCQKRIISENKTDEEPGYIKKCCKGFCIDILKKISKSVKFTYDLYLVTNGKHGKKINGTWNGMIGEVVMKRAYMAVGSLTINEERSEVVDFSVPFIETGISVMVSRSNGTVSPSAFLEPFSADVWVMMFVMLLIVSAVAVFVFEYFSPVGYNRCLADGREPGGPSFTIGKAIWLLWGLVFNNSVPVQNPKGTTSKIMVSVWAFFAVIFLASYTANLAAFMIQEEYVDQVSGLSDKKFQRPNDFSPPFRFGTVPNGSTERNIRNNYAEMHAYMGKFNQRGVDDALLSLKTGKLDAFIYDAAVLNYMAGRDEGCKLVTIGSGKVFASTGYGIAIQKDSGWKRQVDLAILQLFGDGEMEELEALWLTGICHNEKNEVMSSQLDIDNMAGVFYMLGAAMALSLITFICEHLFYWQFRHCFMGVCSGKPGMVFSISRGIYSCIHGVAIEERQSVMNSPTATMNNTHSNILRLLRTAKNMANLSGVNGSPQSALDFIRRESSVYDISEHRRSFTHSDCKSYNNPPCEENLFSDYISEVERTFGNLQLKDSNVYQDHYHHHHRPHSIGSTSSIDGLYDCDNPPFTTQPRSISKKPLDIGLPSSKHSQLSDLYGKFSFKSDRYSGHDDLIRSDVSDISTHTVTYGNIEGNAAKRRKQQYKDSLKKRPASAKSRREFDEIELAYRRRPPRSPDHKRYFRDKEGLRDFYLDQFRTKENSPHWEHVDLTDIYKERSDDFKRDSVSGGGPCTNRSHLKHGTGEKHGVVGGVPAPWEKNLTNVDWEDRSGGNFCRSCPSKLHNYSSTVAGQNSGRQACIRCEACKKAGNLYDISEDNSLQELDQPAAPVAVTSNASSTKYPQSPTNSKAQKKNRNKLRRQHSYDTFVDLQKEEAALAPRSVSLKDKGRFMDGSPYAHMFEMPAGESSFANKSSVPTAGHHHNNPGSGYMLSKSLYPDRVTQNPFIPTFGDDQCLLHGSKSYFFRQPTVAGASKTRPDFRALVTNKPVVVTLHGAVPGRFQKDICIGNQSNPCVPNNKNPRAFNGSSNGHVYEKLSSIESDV

Row | SMILES | pIC50 (NR1/NR2C) | pIC50 (NR1/NR2D [1]) | pIC50 (NR1/NR2B) | remaining activity at 100 µM (GluR1) [%] | remaining activity at 100 µM (NR1/NR2A) [%] | other results
1 | CCN(CC)C(=O)Oc1ccc(C(=O)Nc2cccc3ccccc23)cc1 [1063-2] | 5.22 | 5.40 | 3.85 | 118 |  | pIC50 (NR1/NR2A): 3.36
2 | CC(C)N(C(=O)Oc1ccc(C(=O)Nc2cccc3ccccc23)cc1)C(C)C [1063-4] | 5.10 | 5.30 | 3.80 | 130 |  | pIC50 (NR1/NR2A): 3.06
3 | CCN(CC)C(=O)Oc1ccc(C(=O)Nc2cccc3cc[nH]c23)cc1 [1063-20] | 5.30 | 5.52 | 3.03 | 92 |  | pIC50 (NR1/NR2A): 2.62
4 | CCN(CC)C(=O)Oc1ccc(C(=O)Nc2cc(C)cc3c(C)c[nH]c23)cc1 [1063-34] | 3.99 | 4.03 | 3.44 | 85 | 71 | 
5 | C=CCN1CCC2(C)c3cc(O)ccc3CC1C2C (stereo not drawn) [N-allylnormetazoline] |  |  |  |  |  | identification in test screen of NR1/NR2D expressing BHK cells (NR1/NR2D [2]; 10 μM test compound, 100 μM glutamate/1 mM glycine): successfully identified
6 | O=C(Nc1cccc2ccccc12)c1ccc(OC(=O)N2CCCC2)cc1 [1063-6] |  |  |  |  |  | pIC50 (NR1/NR2C; [4]): 3.87; pIC50 (NR1/NR2D [1]; [5]): 3.59; remaining activity at 100 µM (NR1/NR2A; at 100 μM): 87%; pIC50 (NR1/NR2B; [6]): 3.30
7 | CCN(CC)C(=O)Oc1ccc(C(=O)Nc2cc(C)cc3c2NCC3)cc1 [1063-32] | 4.70 | 5.10 | 3.67 |  | 81 | 
8 | Cc1ccc2cc(C3CC(c4ccc(Br)cc4)=NN3C(=O)CCC(=O)O)c(=O)[nH]c2c1 (stereo not drawn) [compound 1177] |  |  |  |  |  | 2D percent response at the maximum tested concentration (NR1/NR2D [3]; at 100 μM): 80% at 100 μM
9 | O=C(Nc1cccc2ccccc12)c1ccc2oc(=O)[nH]c2c1 [1063-31] |  |  |  |  |  | pIC50 (NR1/NR2C; [4]): 3.28; pIC50 (NR1/NR2D [1]; [5]): 3.44; pIC50 (NR1/NR2A; logistic fit, minimum forced to 0, read-out: 2A IC50): 3.26; pIC50 (NR1/NR2B; [6]): 3.48
10 | CN(C)C(=O)Oc1ccc(C(=O)Nc2cccc3ccccc23)cc1 [1063-3] | 3.21 | 3.71 | 2.84 |  | 110 | 
11 | CCN(CC)C(=O)Oc1ccc(C(=O)Nc2ccc3c(c2)CCCC3)cc1 [1063-19] | 4.24 | 4.59 |  |  | 89 | remaining activity at 100 µM (NR1/NR2B): 74%
12 | CC(C)N(C(=O)Oc1ccc(C(=O)Oc2ccc3cccc(N)c3c2)cc1)C(C)C [1063-13] | 3.41 | 4.26 |  | 117 | 89 | remaining activity at 100 µM (NR1/NR2B): 84%
13 | CC(=O)N1N=C(c2c(-c3ccccc3)c3cc(C)ccc3[nH]c2=O)CC1c1ccc(Br)cc1 (stereo not drawn) [compound 1250] |  |  |  |  |  | 2D percent response at the maximum tested concentration (NR1/NR2D [3]): 81% at 30 μM
14 | CC12CC3CC(C)(C1)CC(N)(C3)C2 [memantine] |  |  |  |  |  | identification in test screen of NR1/NR2D expressing BHK cells (NR1/NR2D [2]): successfully identified
15 | N[C@@H](CCC(=O)O)C(=O)O [glutamate, reference compound] |  |  |  |  |  | pEC50 (NR1/NR2D [3]; submicromolar, method not stated, read-out: EC50 for activation of NR2D-containing receptors): > 6.30
16 | O=C(Nc1cccc2ccccc12)c1ccc(OC(=O)C2CC2)cc1 [1063-10] |  |  |  |  |  | remaining activity at 100 µM (NR1/NR2C; at 100 μM, read-out: 2C percent effect at the maximum tested concentration): 86%; remaining activity at 100 µM (NR1/NR2D [1]; at 100 μM, read-out: 2D percent effect at the maximum tested concentration): 81%; remaining activity at 100 µM (NR1/NR2A; at 100 μM): 111%; remaining activity at 100 µM (NR1/NR2B; at 100 μM): 92%
